Patent publication US20150182431A1, “Compositions and Methods for Treatment of Hair with Reduced Hair Damage” (SYTHEON LTD, priority 2013, published 2015)

Settings: for Fluorescence decay of fluorescein (FL), in words: 200 μM each, CuCl2 230 μM, CaCl2 2.3 mM
Procedure: The study was conducted in accordance with the methodology disclosed in “Novel Fluorometric Assay for Hydroxyl Radical Prevention Capacity Using Fluorescein as the Probe”, B Ou, M Hampsch-Woodill, J Flanagan, EK Deemer, R Prior, D Huang, J. Agric, Food Chem: 50(10); 2772-2777, 2002.
The Fenton reaction was initiated with the mixture of Cu^2+, CaCl2 and hydrogen peroxide at alkaline condition. Hydroxyl radicals were generated by the Fenton reagent mixture, oxidative damage was monitored by fluorescein (FL), a fluorescence probe sensitive to hydroxyl radicals. The loss of fluorescence intensity was an index of oxidation. Thus, the slower the fluorescence decay, the stronger the chelation for Cu^2+.

| Structure (SMILES) | Chelating ability for copper, in words | Fluorescence decay of fluorescein (FL), in words | Chelation of Cu^2+ preventing the Fenton reaction, in words (equimolar amounts (230 μM) of compound and Cu^2+) | Attraction for calcium, in words (excess Ca^2+) |
| --- | --- | --- | --- | --- |
| COc1cc(C=C(C(C)=O)C(C)=O)cc(OC)c1OC [Compd. 1E, 3-(3,4,5-trimethoxybenzylidene) 2,4-pentanedione] | excellent chelating ability for copper | barely noted | almost completely chelated | little attraction for calcium |
| O=C(O)CC(NCCNC(CC(=O)O)C(=O)O)C(=O)O (stereo not shown) [EDDS, Ethylenediamine-N,N′-disuccinic acid, reference compound] | not an effective chelating agent for copper | barely noted | – | – |
| O=C(O)CN(CCN(CC(=O)O)CC(=O)O)CC(=O)O [EDTA, Ethylenediamine tetraacetic acid, reference compound] | – | barely noted | – | – |
